Test results published in US8802597B2, “Herbicidal pyrimidines” (E I du Pont de Nemours and Company, priority 2003, dated 2014).

How the values were obtained:
Experiment in all cases: Test C pre/postemergence
Type in all cases: in vivo
[1] = system: giant foxtail (Setaria faberii); conditions: for Plant response rating (scale of 0 to 100), Foxtail, Giant / Foxtail, Giant plant response rating: Postemergence; for Foxtail, Giant plant response rating: scale 0 to 100 (0 no effect, 100 complete control); for Plant response rating, Foxtail, Giant: Preemergence
Method in brief: (§1)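 Greenhouse herbicide screen, visual readout. Compound in solvent/surfactant applied preemergence at planting or postemergence to 1- to 4-leaf plants; assessed at 12–14 days on a 0–100 control scale.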

[2] = system: cocklebur (Xanthium strumarium); conditions: for Plant response rating (scale of 0 to 100), Cocklebur / Cocklebur plant response rating: Postemergence; for Cocklebur plant response rating: scale 0 to 100 (0 no effect, 100 complete control); for Plant response rating, Cocklebur: Preemergence
Method in brief: as §1

[3] = system: velvetleaf (Abutilon theophrasti); conditions: for Plant response rating (scale of 0 to 100), Velvetleaf / Velvetleaf plant response rating: Postemergence; for Velvetleaf plant response rating: scale 0 to 100 (0 no effect, 100 complete control); for Plant response rating, Velvetleaf: Preemergence
Method in brief: as §1

[4] = system: common (oilseed) sunflower (Helianthus annuus); conditions: Preemergence
Method in brief: as §1

[5] = system: morningglory (Ipomoea coccinea); conditions: for Plant response rating (scale of 0 to 100), Morningglory / Morningglory plant response rating: Postemergence; for Morningglory plant response rating: scale 0 to 100 (0 no effect, 100 complete control); for Plant response rating, Morningglory: Preemergence
Method in brief: as §1

[6] = system: woolly cupgrass (Eriochloa villosa); conditions: for Plant response rating (scale of 0 to 100), Cupgrass, Woolly / Cupgrass, Woolly plant response rating: Postemergence; for Cupgrass, Woolly plant response rating: scale 0 to 100 (0 no effect, 100 complete control); for Plant response rating, Cupgrass, Woolly: Preemergence
Method in brief: as §1

[7] = system: common ragweed (Ambrosia elatior); conditions: for Plant response rating (scale of 0 to 100), Ragweed / Ragweed plant response rating: Postemergence; for Ragweed plant response rating: scale 0 to 100 (0 no effect, 100 complete control); for Plant response rating, Ragweed: Preemergence
Method in brief: as §1

[8] = system: kochia (Kochia scoparia); conditions: for Plant response rating (scale of 0 to 100), Kochia / Kochia plant response rating: Postemergence; for Kochia plant response rating: scale 0 to 100 (0 no effect, 100 complete control); for Plant response rating, Kochia: Preemergence
Method in brief: as §1

[9] = system: crabgrass (Digitaria sanguinalis); conditions: for Plant response rating (scale of 0 to 100), Crabgrass / Crabgrass plant response rating: Postemergence; for Crabgrass plant response rating: scale 0 to 100 (0 no effect, 100 complete control); for Plant response rating, Crabgrass: Preemergence
Method in brief: as §1

[10] = system: pigweed (Amaranthus retroflexus); conditions: for Plant response rating (scale of 0 to 100), Pigweed / Pigweed plant response rating: Postemergence; for Pigweed plant response rating: scale 0 to 100 (0 no effect, 100 complete control); for Plant response rating, Pigweed: Preemergence
Method in brief: as §1

[11] = system: yellow nutsedge (Cyperus esculentus); conditions: for Plant response rating (scale of 0 to 100), Nutsedge, Yellow / Nutsedge, Yellow plant response rating: Postemergence; for Nutsedge, Yellow plant response rating: scale 0 to 100 (0 no effect, 100 complete control); for Plant response rating, Nutsedge, Yellow: Preemergence
Method in brief: as §1

[12] = system: eastern black nightshade (Solanum ptycanthum); conditions: Preemergence
Method in brief: as §1

[13] = 16 g ai/ha, scale 0 to 100, 0 no effect, 100 complete control
[14] = 31 g ai/ha, scale 0 to 100, 0 no effect, 100 complete control
[15] = 62 g ai/ha, scale 0 to 100, 0 no effect, 100 complete control

COCc1nc(C2CC2)nc(N)c1Br [Compound 11]
Plant response rating (scale of 0 to 100), Foxtail, Giant ([1]; 16 g ai/ha): 0 | Plant response rating (scale of 0 to 100), Foxtail, Giant ([1]; 31 g ai/ha): 0 | Foxtail, Giant plant response rating ([1]; 62 g ai/ha): 0 | Foxtail, Giant plant response rating ([1]; 125 g ai/ha): 0 | Plant response rating, Foxtail, Giant [1, 13]: 0 | Plant response rating, Foxtail, Giant [1, 14]: 0 | Plant response rating, Foxtail, Giant [1, 15]: 0 | Plant response rating, Foxtail, Giant ([1]; 125 g ai/ha, scale 0 to 100): 20 | Plant response rating (scale of 0 to 100), Cocklebur ([2]; 16 g ai/ha): 0 | Plant response rating (scale of 0 to 100), Cocklebur ([2]; 31 g ai/ha): 0 | Cocklebur plant response rating ([2]; 62 g ai/ha): 25 | Cocklebur plant response rating ([2]; 125 g ai/ha): 40 | Plant response rating, Cocklebur [2, 13]: 0 | Plant response rating, Cocklebur [2, 14]: 0 | Plant response rating, Cocklebur [2, 15]: 0 | Plant response rating, Cocklebur ([2]; 125 g ai/ha, scale 0 to 100): 0 | Plant response rating (scale of 0 to 100), Velvetleaf ([3]; 16 g ai/ha): 20 | Plant response rating (scale of 0 to 100), Velvetleaf ([3]; 31 g ai/ha): 50 | Velvetleaf plant response rating ([3]; 62 g ai/ha): 60 | Velvetleaf plant response rating ([3]; 125 g ai/ha): 75 | Plant response rating, Velvetleaf [3, 13]: 0 | Plant response rating, Velvetleaf [3, 14]: 0 | Plant response rating, Velvetleaf [3, 15]: 0 | Plant response rating, Velvetleaf ([3]; 125 g ai/ha, scale 0 to 100): 0 | Plant response rating, Sunflower [4, 13]: 0 | Plant response rating, Sunflower [4, 14]: 0 | Plant response rating, Sunflower [4, 15]: 0 | Plant response rating, Sunflower ([4]; 125 g ai/ha, scale 0 to 100): 0 | Plant response rating (scale of 0 to 100), Morningglory ([5]; 16 g ai/ha): 0 | Plant response rating (scale of 0 to 100), Morningglory ([5]; 31 g ai/ha): 0 | Morningglory plant response rating ([5]; 62 g ai/ha): 0 | Morningglory plant response rating ([5]; 125 g ai/ha): 0 | Plant response rating, Morningglory [5, 13]: 0 | Plant response rating, Morningglory [5, 14]: 0 | Plant response rating, Morningglory [5, 15]: 0 | Plant response rating, Morningglory ([5]; 125 g ai/ha, scale 0 to 100): 0 | Plant response rating (scale of 0 to 100), Cupgrass, Woolly ([6]; 16 g ai/ha): 0 | Plant response rating (scale of 0 to 100), Cupgrass, Woolly ([6]; 31 g ai/ha): 0 | Cupgrass, Woolly plant response rating ([6]; 62 g ai/ha): 0 | Cupgrass, Woolly plant response rating ([6]; 125 g ai/ha): 0 | Plant response rating, Cupgrass, Woolly [6, 13]: 0 | Plant response rating, Cupgrass, Woolly [6, 14]: 0 | Plant response rating, Cupgrass, Woolly [6, 15]: 0 | Plant response rating, Cupgrass, Woolly ([6]; 125 g ai/ha, scale 0 to 100): 0 | Plant response rating (scale of 0 to 100), Ragweed ([7]; 16 g ai/ha): 15 | Plant response rating (scale of 0 to 100), Ragweed ([7]; 31 g ai/ha): 45 | Ragweed plant response rating ([7]; 62 g ai/ha): 65 | Ragweed plant response rating ([7]; 125 g ai/ha): 75 | Plant response rating, Ragweed [7, 13]: 0 | Plant response rating, Ragweed [7, 14]: 0 | Plant response rating, Ragweed [7, 15]: 20 | Plant response rating, Ragweed ([7]; 125 g ai/ha, scale 0 to 100): 45 | Plant response rating (scale of 0 to 100), Kochia ([8]; 16 g ai/ha): 40 | Plant response rating (scale of 0 to 100), Kochia ([8]; 31 g ai/ha): 65 | Kochia plant response rating ([8]; 62 g ai/ha): 75 | Kochia plant response rating ([8]; 125 g ai/ha): 90 | Plant response rating, Kochia [8, 13]: 0 | Plant response rating, Kochia [8, 14]: 0 | Plant response rating, Kochia [8, 15]: 0 | Plant response rating, Kochia ([8]; 125 g ai/ha, scale 0 to 100): 60 | Plant response rating (scale of 0 to 100), Crabgrass ([9]; 16 g ai/ha): 0 | Plant response rating (scale of 0 to 100), Crabgrass ([9]; 31 g ai/ha): 0 | Crabgrass plant response rating ([9]; 62 g ai/ha): 0 | Crabgrass plant response rating ([9]; 125 g ai/ha): 20 | Plant response rating, Crabgrass [9, 13]: 0 | Plant response rating, Crabgrass [9, 14]: 0 | Plant response rating, Crabgrass [9, 15]: 0 | Plant response rating, Crabgrass ([9]; 125 g ai/ha, scale 0 to 100): 60 | Plant response rating (scale of 0 to 100), Pigweed ([10]; 16 g ai/ha): 60 | Plant response rating (scale of 0 to 100), Pigweed ([10]; 31 g ai/ha): 70 | Pigweed plant response rating ([10]; 62 g ai/ha): 80 | Pigweed plant response rating ([10]; 125 g ai/ha): 90 | Plant response rating, Pigweed [10, 13]: 0 | Plant response rating, Pigweed [10, 14]: 0 | Plant response rating, Pigweed [10, 15]: 65 | Plant response rating, Pigweed ([10]; 125 g ai/ha, scale 0 to 100): 90 | Plant response rating (scale of 0 to 100), Nutsedge, Yellow ([11]; 16 g ai/ha): 0 | Plant response rating (scale of 0 to 100), Nutsedge, Yellow ([11]; 31 g ai/ha): 0 | Nutsedge, Yellow plant response rating ([11]; 62 g ai/ha): 0 | Nutsedge, Yellow plant response rating ([11]; 125 g ai/ha): 0 | Plant response rating, Nutsedge, Yellow [11, 13]: 0 | Plant response rating, Nutsedge, Yellow [11, 14]: 0 | Plant response rating, Nutsedge, Yellow [11, 15]: 0

CCOC(=O)c1nc(C2CC2)nc(N=CN(C)C)c1Br [Compound 40]
Plant response rating, Foxtail, Giant [1, 15]: 0 | Plant response rating, Foxtail, Giant ([1]; 125 g ai/ha, scale 0 to 100): 0 | Plant response rating, Foxtail, Giant ([1]; 250 g ai/ha, scale 0 to 100): 30 | Plant response rating, Foxtail, Giant ([1]; 500 g ai/ha, scale 0 to 100): 35 | Plant response rating, Cocklebur [2, 15]: 5 | Plant response rating, Cocklebur ([2]; 125 g ai/ha, scale 0 to 100): 70 | Plant response rating, Cocklebur ([2]; 250 g ai/ha, scale 0 to 100): 90 | Plant response rating, Cocklebur ([2]; 500 g ai/ha, scale 0 to 100): 100 | Plant response rating, Velvetleaf [3, 15]: 0 | Plant response rating, Velvetleaf ([3]; 125 g ai/ha, scale 0 to 100): 70 | Plant response rating, Velvetleaf ([3]; 250 g ai/ha, scale 0 to 100): 90 | Plant response rating, Velvetleaf ([3]; 500 g ai/ha, scale 0 to 100): 100 | Plant response rating, Sunflower [4, 15]: 5 | Plant response rating, Sunflower ([4]; 125 g ai/ha, scale 0 to 100): 90 | Plant response rating, Sunflower ([4]; 250 g ai/ha, scale 0 to 100): 90 | Plant response rating, Sunflower ([4]; 500 g ai/ha, scale 0 to 100): 95 | Plant response rating, Morningglory ([5]; 125 g ai/ha, scale 0 to 100): 90 | Plant response rating, Morningglory ([5]; 250 g ai/ha, scale 0 to 100): 90 | Plant response rating, Morningglory ([5]; 500 g ai/ha, scale 0 to 100): 100 | Plant response rating, Cupgrass, Woolly [6, 15]: 5 | Plant response rating, Cupgrass, Woolly ([6]; 125 g ai/ha, scale 0 to 100): 5 | Plant response rating, Cupgrass, Woolly ([6]; 250 g ai/ha, scale 0 to 100): 70 | Plant response rating, Cupgrass, Woolly ([6]; 500 g ai/ha, scale 0 to 100): 95 | Plant response rating, Ragweed [7, 15]: 90 | Plant response rating, Ragweed ([7]; 125 g ai/ha, scale 0 to 100): 90 | Plant response rating, Ragweed ([7]; 250 g ai/ha, scale 0 to 100): 100 | Plant response rating, Ragweed ([7]; 500 g ai/ha, scale 0 to 100): 100 | Plant response rating, Crabgrass [9, 15]: 5 | Plant response rating, Crabgrass ([9]; 500 g ai/ha, scale 0 to 100): 100 | Plant response rating, Pigweed [10, 15]: 20 | Plant response rating, Pigweed ([10]; 125 g ai/ha, scale 0 to 100): 100 | Plant response rating, Pigweed ([10]; 250 g ai/ha, scale 0 to 100): 100 | Plant response rating, Pigweed ([10]; 500 g ai/ha, scale 0 to 100): 100 | Plant response rating, Nightshade [12, 15]: 100 | Plant response rating, Nightshade ([12]; 125 g ai/ha, scale 0 to 100): 100 | Plant response rating, Nightshade ([12]; 250 g ai/ha, scale 0 to 100): 100 | Plant response rating, Nightshade ([12]; 500 g ai/ha, scale 0 to 100): 100 | Plant response rating, Nutsedge, Yellow [11, 15]: 0 | Plant response rating, Nutsedge, Yellow ([11]; 125 g ai/ha, scale 0 to 100): 0 | Plant response rating, Nutsedge, Yellow ([11]; 250 g ai/ha, scale 0 to 100): 0 | Plant response rating, Nutsedge, Yellow ([11]; 500 g ai/ha, scale 0 to 100): 0
